Assay results taken from ChEMBL document CHEMBL5252568, “Rational design of HJH antimicrobial peptides to improve antimicrobial activity” (Bioorg Med Chem Lett, 2023).

How the values were obtained:
Staphylococcus aureus = assay: Antimicrobial activity against Staphylococcus aureus ATCC 29213 assessed as reduction in microbial growth; type: functional
Escherichia coli = assay: Antimicrobial activity against Escherichia coli ATCC 25922 assessed as reduction in microbial growth; type: functional
Candida albicans = assay: Antimicrobial activity against Candida albicans ATCC 90029 assessed as reduction in microbial growth; type: functional
HEK293 [1] = assay: Cytotoxicity against human HEK293 cells assessed as reduction in cell viability at 128 uM relative to control; type: toxicity, cell-based; conditions: hek293, 128 µM
[2] = Stability in human serum assessed as compound remaining measured after 1 hr by RP-HPLC analysis; type: ADME, cell-free; conditions: read-out: Stability
[3] = Stability in human serum assessed as compound remaining measured after 3 hr by RP-HPLC analysis; type: ADME, cell-free; conditions: read-out: Stability
HEK293 [4] = assay: Cytotoxicity against human HEK293 cells assessed as reduction in cell viability at 1 to 128 uM relative to control; type: toxicity, cell-based; conditions: hek293, 128 µM, dose 1-128 µM
[5] = Hemolytic activity in human RBC assessed as hemolysis at 2 uM relative to control; type: toxicity, cell-based, Erythrocyte; conditions: red blood cells, read-out: Activity
[6] = Hemolytic activity in human RBC assessed as hemolysis at 128 uM relative to control; type: toxicity, cell-based, Erythrocyte; conditions: red blood cells, read-out: Activity
HEK293 [7] = assay: Cytotoxicity against human HEK293 cells assessed as reduction in cell viability up to 256 uM; type: toxicity, cell-based; conditions: hek293, 256 µM
[8] = Hemolytic activity against human RBC assessed as concentration required to cause 10% hemolysis up to 256 uM relative to control; type: toxicity, cell-based; conditions: erythrocyte

Compound | MIC (Staphylococcus aureus) [µg/mL] | MIC (Escherichia coli) [µg/mL] | MIC (Candida albicans) [µg/mL] | Activity (HEK293 [1]) [%] | remaining at 1 h [2] [%] | remaining at 3 h [3] [%] | Activity (HEK293 [4]) | hemolysis at 2 µM [5] [%] | hemolysis at 128 µM [6] [%] | Activity (HEK293 [7]) | Activity [8]
C[C@@H]1[C@H](O)[C@@H](C)/C=C/C=C/C=C/C=C/C=C/C=C/C=C/[C@H](O[C@@H]2O[C@H](C)[C@@H](O)[C@H](N)[C@@H]2O)C[C@@H]2O[C@](O)(C[C@@H](O)C[C@@H](O)[C@H](O)CC[C@@H](O)C[C@@H](O)CC(=O)O[C@H]1C)C[C@H](O)[C@H]2C(=O)O [AMPHOTERICIN B] | 0.4 | 0.4 |  |  |  |  |  |  |  |  | 
OC(Cn1cncn1)(Cn1cncn1)c1ccc(F)cc1F [FLUCONAZOLE] |  |  | 12.5 |  |  |  |  |  |  |  | 
H-KKLLKKLLRLLKVLLR-OH | 0.75 | 25 | 3 | 11 | 60 | < 9 | Toxic | 90 |  |  | 
H-KKLLRLLKVLLR-OH | 1.5 | 1.5 | 50 | 50 | 60 | < 9 | Toxic |  | 35 |  | 
H-KLLKHKLLVTLA-OH | 50 | 50 | > 200 |  |  | < 9 |  |  |  | Non-Toxic | Non-Toxic
H-KLLKHKLLVTLR-OH | 12.5 | 50 | > 200 |  |  |  |  |  |  | Non-Toxic | Non-Toxic
H-KLLKRKLLVLLR-OH | 3 | 12.5 | > 200 |  |  |  |  |  |  |  | 
H-KLLKRKLLVTLR-OH | 6.25 | 25 | > 200 |  |  |  |  |  |  | Non-Toxic | Non-Toxic
